Like-named read-outs stand apart in the source and are kept apart here.
Key:
[1] = molecular target: T1, human Cav3.2 T-type Ca2+ channel (Homo sapiens, UniProt O95180); assay: Inhibitory effect for intracellular calcium response via Cav3.2 T-type Ca2+ channels (FLIPR Calcium 3 Assay Kit); assay type: cell-based
T1 construct: expressed in transfected cells; host or cells: KJMGER8 cells (Namalwa cell-derived cell line)

[2] = test system: morphine-induced pruritus mice; assay: Inhibitory effect for pruritus in morphine-induced pruritus mice; assay type: in vivo, male ddY mice; conditions: oral, dose of 30 mg/kg or less, 30 minutes before intrathecal morphine (1 nmol/5 μL); scratching counted for 30 minutes
Protocol: Morphine (1 nmol/5 μL, dissolved in physiological saline) or physiological saline was intrathecally administered between the fifth and sixth lumbar vertebrae of male ddY mice using a microsyringe fitted with a 30-gauge injection needle. Mice administered with only morphine were used as a control group, and mice administered with only physiological saline as a physiological saline-administered group.
After the morphine administration, the number of scratching behavior with the hind legs which observed immediately in the mice was measured for 30 minutes. Because mice show a rapid, continuous scratching behavior in each scratching behavior, a series of such behavior was counted as a single scratching behavior.
The test compounds were administered 30 minutes before the morphine administration. Each test compound was suspended in a 0.5% methylcellulose solution, and orally administered in 10 mL/kg volume.

[3] = human Cav3.2-expressing KJMGER8 cells (Namalwa-derived), calcium response induced by 5 mmol/L CaCl2, normalised to 3 μmol/L mibefradil, read-out: IC50 for the human Cav3.2 T-type Ca2+ current

T1 sequence (O95180 whole entry): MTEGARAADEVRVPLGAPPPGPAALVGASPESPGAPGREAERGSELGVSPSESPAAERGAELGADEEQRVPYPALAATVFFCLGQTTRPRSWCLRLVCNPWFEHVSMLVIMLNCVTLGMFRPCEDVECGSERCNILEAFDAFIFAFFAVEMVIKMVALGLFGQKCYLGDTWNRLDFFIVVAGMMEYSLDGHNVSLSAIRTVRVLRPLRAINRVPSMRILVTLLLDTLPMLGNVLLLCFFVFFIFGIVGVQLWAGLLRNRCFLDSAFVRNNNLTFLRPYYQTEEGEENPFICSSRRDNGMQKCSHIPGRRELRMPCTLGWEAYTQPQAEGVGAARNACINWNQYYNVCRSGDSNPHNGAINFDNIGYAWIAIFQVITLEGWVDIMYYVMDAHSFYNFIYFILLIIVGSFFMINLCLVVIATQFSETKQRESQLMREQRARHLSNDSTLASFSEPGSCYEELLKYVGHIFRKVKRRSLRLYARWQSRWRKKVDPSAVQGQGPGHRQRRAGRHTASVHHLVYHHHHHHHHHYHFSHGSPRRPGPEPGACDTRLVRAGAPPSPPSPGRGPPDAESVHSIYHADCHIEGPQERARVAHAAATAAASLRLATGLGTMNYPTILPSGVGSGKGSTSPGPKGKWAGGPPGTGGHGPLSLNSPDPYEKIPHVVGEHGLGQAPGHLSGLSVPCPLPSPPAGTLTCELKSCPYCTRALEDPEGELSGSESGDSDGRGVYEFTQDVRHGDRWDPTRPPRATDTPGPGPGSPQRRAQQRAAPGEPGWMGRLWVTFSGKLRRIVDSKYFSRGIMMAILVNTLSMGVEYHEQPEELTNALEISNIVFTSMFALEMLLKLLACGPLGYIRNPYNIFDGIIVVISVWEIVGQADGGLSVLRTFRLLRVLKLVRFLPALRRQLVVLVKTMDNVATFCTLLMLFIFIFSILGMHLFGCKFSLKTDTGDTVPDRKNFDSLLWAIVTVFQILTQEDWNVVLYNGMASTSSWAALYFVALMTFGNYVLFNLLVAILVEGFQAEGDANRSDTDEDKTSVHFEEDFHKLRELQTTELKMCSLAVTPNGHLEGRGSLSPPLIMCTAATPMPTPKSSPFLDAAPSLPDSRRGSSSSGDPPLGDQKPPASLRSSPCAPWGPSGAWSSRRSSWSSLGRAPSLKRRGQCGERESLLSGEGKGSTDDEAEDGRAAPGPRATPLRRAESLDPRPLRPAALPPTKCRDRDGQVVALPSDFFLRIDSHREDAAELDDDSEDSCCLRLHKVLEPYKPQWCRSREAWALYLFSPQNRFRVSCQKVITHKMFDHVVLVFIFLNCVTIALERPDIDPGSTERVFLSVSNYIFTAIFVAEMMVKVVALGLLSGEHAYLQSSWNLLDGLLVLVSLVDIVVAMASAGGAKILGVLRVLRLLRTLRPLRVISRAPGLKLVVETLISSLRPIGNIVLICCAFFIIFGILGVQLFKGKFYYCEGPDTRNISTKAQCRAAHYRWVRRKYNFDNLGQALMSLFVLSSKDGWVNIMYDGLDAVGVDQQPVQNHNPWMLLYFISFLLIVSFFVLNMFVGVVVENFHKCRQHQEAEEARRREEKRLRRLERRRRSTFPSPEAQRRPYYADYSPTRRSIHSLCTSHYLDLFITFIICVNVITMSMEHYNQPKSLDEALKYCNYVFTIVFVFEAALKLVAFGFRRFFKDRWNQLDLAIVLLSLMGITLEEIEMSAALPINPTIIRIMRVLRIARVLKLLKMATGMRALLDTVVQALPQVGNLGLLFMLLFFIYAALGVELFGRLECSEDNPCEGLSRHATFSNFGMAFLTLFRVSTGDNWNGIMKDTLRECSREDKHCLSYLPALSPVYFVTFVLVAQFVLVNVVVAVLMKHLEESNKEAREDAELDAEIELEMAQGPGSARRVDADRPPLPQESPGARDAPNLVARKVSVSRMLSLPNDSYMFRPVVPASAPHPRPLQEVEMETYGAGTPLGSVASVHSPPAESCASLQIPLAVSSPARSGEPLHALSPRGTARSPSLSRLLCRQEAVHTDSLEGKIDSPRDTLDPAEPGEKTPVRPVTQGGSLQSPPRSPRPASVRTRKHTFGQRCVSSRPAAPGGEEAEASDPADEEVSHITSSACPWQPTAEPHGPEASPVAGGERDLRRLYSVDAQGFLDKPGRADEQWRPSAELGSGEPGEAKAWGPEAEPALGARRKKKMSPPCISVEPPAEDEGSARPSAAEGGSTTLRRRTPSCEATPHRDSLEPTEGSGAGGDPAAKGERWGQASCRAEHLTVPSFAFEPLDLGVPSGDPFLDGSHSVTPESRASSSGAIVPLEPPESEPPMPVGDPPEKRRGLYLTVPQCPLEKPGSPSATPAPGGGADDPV

| Compound | IC50 [1] [nM] | increase of the scratching behavior observed in the morphine-induced pruritus mice [2] | IC50 [1, 3] [nM] |
| --- | --- | --- | --- |
| Cc1cc(C(=O)NCC2CCOCC2)cc2nc(C(F)(F)F)c(CC3CCC(F)(F)CC3)n12 [Compound 81, 3-(4,4-Difluorocyclohexylmethyl)-5-methyl-N-{(tetrahydro-2H-pyran-4-yl)methyl}-2-trifluoromethylimidazo[1,2-a]pyridine-7-carboxamide] | < 100 | inhibited | – |
| Cc1cc(C(=O)NCC2(C#N)CCOCC2)cc2nc(C(F)(F)F)c(CC3CCC(F)(F)CC3)n12 [Compound 84, N-{(4-Cyanotetrahydro-2H-pyran-4-yl)methyl}-3-(4,4-difluorocyclohexylmethyl)-5-methyl-2-trifluoromethylimidazo[1,2-a]pyridine-7-carboxamide] | < 100 | inhibited | – |
| Cc1cc(C(=O)NC2CCOCC2)cc2nc(C(C)(F)F)c(CC3CCC(F)(F)CC3)n12 [Compound 96, 3-(4,4-Difluorocyclohexylmethyl)-2-(1,1-difluoroethyl)-5-methyl-N-(tetrahydro-2H-pyran-4-yl)imidazo[1,2-a]pyridine-7-carboxamide] | < 100 | inhibited | – |
| Cc1cc(C(=O)NC2CCOCC2)cc2nc(C3(C)CC3)c(CC3CCC(F)(F)CC3)n12 [Compound 100, 3-(4,4-Difluorocyclohexylmethyl)-5-methyl-2-(1-methylcyclopropyl)-N-(tetrahydro-2H-pyran-4-yl)imidazo[1,2-a]pyridine-7-carboxamide] | < 100 | inhibited | – |
| Cc1cc(C(=O)NC2CCOCC2)cc2nc(C(C)C)c(CC3CCC(F)(F)CC3)n12 [Compound 101, 3-(4,4-Difluorocyclohexylmethyl)-2-isopropyl-5-methyl-N-(tetrahydro-2H-pyran-4-yl)imidazo[1,2-a]pyridine-7-carboxamide] | < 100 | inhibited | – |
| O=C(N[C@H]1CC[C@H](O)CC1)c1cc(Cl)n2c(CC3CCC(F)(F)CC3)c(C(F)(F)F)nc2c1 [Compound 103, 5-Chloro-3-(4,4-difluorocyclohexylmethyl)-N-(trans-4-hydroxycyclohexyl)-2-trifluoromethylimidazo[1,2-a]pyridine-7-carboxamide] | < 100 | inhibited | – |
| O=C(NC1CCOCC1)c1cc(Cl)n2c(CC3CCC(F)(F)CC3)c(C(F)(F)F)nc2c1 [Compound 104, 5-Chloro-3-(4,4-difluorocyclohexylmethyl)-N-(tetrahydro-2H-pyran-4-yl)-2-trifluoromethylimidazo[1,2-a]pyridine-7-carboxamide] | < 100 | inhibited | – |
| CC1(C)CC(NC(=O)c2cc(Cl)n3c(CC4CCC(F)(F)CC4)c(C(F)(F)F)nc3c2)CCO1 (stereo not drawn) [Compound 105, 5-Chloro-3-(4,4-difluorocyclohexylmethyl)-N-(2,2-dimethyltetrahydro-2H-pyran-4-yl)-2-trifluoromethylimidazo[1,2-a]pyridine-7-carboxamide] | < 100 | inhibited | – |
| O=C(NC1CCOCC1)c1cc2nc(C(F)(F)F)c(CC3CCC(F)(F)CC3)n2cc1Cl [Compound 108, 6-Chloro-3-(4,4-difluorocyclohexylmethyl)-N-(tetrahydro-2H-pyran-4-yl)-2-trifluoromethylimidazo[1,2-a]pyridine-7-carboxamide] | < 100 | inhibited | – |
| CC(F)(F)c1nc2cc(C(=O)NC3CCOCC3)c(Cl)cn2c1CC1CCC(F)(F)CC1 [Compound 109, 6-Chloro-3-(4,4-difluorocyclohexylmethyl)-2-(1,1-difluoroethyl)-N-(tetrahydro-2H-pyran-4-yl)imidazo[1,2-a]pyridine-7-carboxamide] | < 100 | inhibited | – |
| O=C(NC1CCOCC1)c1cc2nc(C3(C(F)(F)F)CC3)c(CC3CCC(F)(F)CC3)n2cc1Cl [Compound 110, 6-Chloro-3-(4,4-difluorocyclohexylmethyl)-N-(tetrahydro-2H-pyran-4-yl)-2-{1-(trifluoromethyl)cyclopropyl}imidazo[1,2-a]pyridine-7-carboxamide] | < 100 | inhibited | – |
| CC(C)c1nc2cc(C(=O)NC3CCOCC3)c(Cl)cn2c1CC1CCC(F)(F)CC1 [Compound 111, 6-Chloro-3-(4,4-difluorocyclohexylmethyl)-2-isopropyl-N-(tetrahydro-2H-pyran-4-yl)imidazo[1,2-a]pyridine-7-carboxamide] | < 100 | inhibited | – |
| CC(C)(C)c1nc2cc(C(=O)NC3CCOCC3)c(Cl)cn2c1CC1CCC(F)(F)CC1 [Compound 113, 2-tert-Butyl-6-chloro-3-(4,4-difluorocyclohexylmethyl)-N-(tetrahydro-2H-pyran-4-yl)imidazo[1,2-a]pyridine-7-carboxamide] | < 100 | inhibited | – |
| CC1(c2nc3cc(C(=O)NC4CCOCC4)c(Cl)cn3c2CC2CCC(F)(F)CC2)CC1 [Compound 114, 6-Chloro-3-(4,4-difluorocyclohexylmethyl)-2-(1-methylcyclopropyl)-N-(tetrahydro-2H-pyran-4-yl)imidazo[1,2-a]pyridine-7-carboxamide] | – | inhibited | < 100 |
| O=C(Nc1ccn2c(CC3CCC(F)(F)CC3)c(C(F)(F)F)nc2c1)c1ccccc1 [Compound 126, N-{3-(4,4-Difluorocyclohexylmethyl)-2-trifluoromethylimidazo[1,2-a]pyridin-7-yl}benzamide] | < 100 | inhibited | – |
| CC(C)c1nc2cc(C(=O)Nc3ccccc3)ccn2c1S(=O)(=O)N1CC(F)(F)C1 [Compound 133, 3-(3,3-Difluoroazetidin-1-ylsulfonyl)-2-isopropyl-N-phenylimidazo[1,2-a]pyridine-7-carboxamide] | – | inhibited | < 100 |
| Cc1cc(NC(=O)c2cc3nc(C(C)C)c(S(=O)(=O)N4CC(F)(F)C4)n3cc2Cl)on1 [Compound 148, 6-Chloro-3-(3,3-difluoroazetidin-1-ylsulfonyl)-2-isopropyl-N-(3-methylisooxazol-5-yl)imidazo[1,2-a]pyridine-7-carboxamide] | – | inhibited | < 100 |
| CC(C)(O)CNC(=O)c1cc(Cl)n2c(CC3CCC(F)(F)CC3)c(C(F)(F)F)nc2c1 [Compound 182, 5-Chloro-3-(4,4-difluorocyclohexylmethyl)-N-(2-hydroxy-2-methylpropyl)-2-trifluoromethylimidazo[1,2-a]pyridine-7-carboxamide] | < 100 | inhibited | – |

Reference: patent US9000186B2, “Ring-fused heterocyclic derivative” (Kyowa Hakko Kirin Co., Ltd., priority 2011, dated 2015)
